# Experimental data: patent publication EP0420120A2, “Optically active benzyl alcohol compound and pharmaceutical composition” (HOKURIKU PHARMACEUTICAL CO., LTD., priority 1989, dated 1991)
# How the values were obtained:
# [1] = system: isolated uterine smooth muscle; test: Effects on isolated uterine smooth muscle of rats (relaxation of oxytocin pre-contracted preparations); type: cell-based
# Method: Non-pregnant female Wistar rats weighing about 200 g were killed and the uteruses were isolated. Each uterine preparation (15 mm in length) was mounted vertically in an organ bath containing modified Locke-Ringer solution of following composition: 150 mM NaCl, 5.4 mM KCl, 0.36 mM CaCl₂, 0.19 mM MgCl₂, 4.8 mM NaHCO₃, 0.15 mM KH₂ PO₄, 0.56 mM Na₂ HPO₄ and 2.8 mM Glucose. The bath medium was maintained at 37 °C and was equilibrated with a gas mixture consisting of 95% O₂ + 5% CO₂. The uterine preparations were pre-contracted with oxytocin (10 ⁻² U/ml) and the muscle relaxations induced by the test compounds were recorded isotonically. The test compounds were added cumulatively to the bath. ED₅₀ values for concentration-response curves which produce 50% relaxations of the maximal relaxations (10 ⁻⁶ M isoproterenol) were calculated.
# isolated atrium = test: Effects on isolated atrium of guinea-pigs (spontaneous beating rate of right atrium); type: cell-based
# Method: Male Hartley guinea-pigs weighing about 500 g were killed and the atria were isolated. Each right atrium was mounted vertically in an organ bath containing Krebs-Henseleit solution and the spontaneous beating rate was recorded. The bath medium was maintained at 30°C and was equilibrated with a gas mixture consisting of 95% O₂ + 5% CO₂. The test compounds were added cumulatively to the bath. ED₅₀ values for concentration-response curves which produce 50% increases of the basal spontaneous beating rate were calculated. The results are shown in Table 3 The selcctive relaxing activities of the compound of the present invention on the uterine and the bladder smooth muscle were compared with positive chronotropic effect in the atrium.
smiles,measurement,setting,value
"CC(C)(C)NCC(O)c1ccc(O)cc1Cl (single isomer, unassigned; (-)) [(-)-enantiomer, (-)-α -[(tert-Butylamino)methyl]-2-chloro-4-hydroxybenzyl alcohol]",effect relative to ritodrine,"[1]; from the ED₅₀ values of Table 1, fold greater than ritodrine",~25 fold
same,effect relative to the (+)-enantiomer,"[1]; from the ED₅₀ values of Table 1, fold greater than the (+)-enantiomer",about 130 fold
same,Selectivity Bladder,isolated atrium; ED₅₀ value (positive chronotropic effect in the atrium) / ED₅₀ value (relaxing effect on the bladder smooth muscle),462
same,Selectivity Uterus,isolated atrium; ED₅₀ value (positive chronotropic effect in the atrium) / ED₅₀ value (relaxing effect on the uterine smooth muscle),21
